Activity calls are given as the source filed them. The calls are words filed in the database; no cut-off is given here.
Experiments:
[1] = Dissociation constant, pKa of the compound; assay type: physicochemical
Gossypium hirsutum [2] = test: Phytotoxicity against Gossypium hirsutum (cotton) seedlings assessed as damage measured under dark conditions at 100 uM; assay type: functional, organism-based
Gossypium hirsutum [3] = test: Phytotoxicity against Gossypium hirsutum (cotton) seedlings assessed as complete killing measured under light conditions at 100 uM; assay type: functional, organism-based
Gossypium hirsutum [4] = test: Phytotoxicity against Gossypium hirsutum (cotton) seedlings assessed as cotyledons are killed and stems are partially survived measured under light conditions at 100 uM; assay type: functional, organism-based
Lathyrus oleraceus [5] = test: Inhibition of Succinate-cytochrome c reductase in Pisum sativum (pea) mitochondrial respiratory-chain electron-transport system at 0.1 uM
Lathyrus oleraceus [6] = test: Inhibition of Succinate-cytochrome c reductase in Pisum sativum (pea) mitochondrial respiratory-chain electron-transport system at 100 uM
Gossypium hirsutum [7] = test: Phytotoxicity against Gossypium hirsutum (cotton) seedlings assessed as moderate darkening measured under dark conditions at 100 uM; assay type: functional, organism-based
Gossypium hirsutum [8] = test: Phytotoxicity against Gossypium hirsutum (cotton) seedlings assessed as cotyledons are damaged with green spots measured under light conditions at 100 uM; assay type: functional
Gossypium hirsutum [9] = test: Phytotoxicity against Gossypium hirsutum (cotton) seedlings assessed as light darkening measured under dark conditions at 100 uM; assay type: functional, organism-based
Gossypium hirsutum [10] = test: Phytotoxicity against Gossypium hirsutum (cotton) seedlings assessed as cotyledons are killed but stems are not wilted measured under light conditions at 100 uM; assay type: functional, organism-based
Gossypium hirsutum [11] = test: Phytotoxicity against Gossypium hirsutum (cotton) seedlings assessed as heavily dark-browning with wrinkling measured under dark conditions at 100 uM; assay type: functional, organism-based

Compound `CCOc1cc(Oc2ccc(C(F)(F)F)cc2Cl)ccc1[N+](=O)[O-]` [OXYFLUORFEN] has a pKa [1] of 7.63.

In the case of `COC(=O)CSc1cc(/N=c2\sc(=O)n3n2CCCC3)c(F)cc1Cl`, the Activity (Gossypium hirsutum [2]) is reported as “inactive” and the Activity (Gossypium hirsutum [3]) is reported as “Active”.

For `CC(C)Oc1cc(-n2nc(C(C)(C)C)oc2=O)c(Cl)cc1Cl`, the Activity (Gossypium hirsutum [2]) was “inactive” and the Activity (Gossypium hirsutum [4]) was “Active”.

Work on `CCCCCC[C@H]1C(=O)O[C@H](C)[C@H](NC(=O)c2cccc(NC=O)c2O)C(=O)O[C@@H](C)[C@@H]1OC(=O)CC(C)C` yielded an inhibition (Lathyrus oleraceus [5]) of 100%.

In the case of `CC(Cl)/C=C/C(=O)N(Cc1ccc(C(F)(F)F)cc1)CC(C)C` (stereo not given), the inhibition (Lathyrus oleraceus [6]) is reported as 1.2%, the Activity (Gossypium hirsutum [7]) is reported as “Active” and the Activity (Gossypium hirsutum [8]) is reported as 10%.

With `CC(Cl)/C=C/C(=O)N(Cc1ccc(S(C)(=O)=O)cc1)CC(C)C` (stereo not given) the Activity (Gossypium hirsutum [9]) was “Active”, the inhibition (Lathyrus oleraceus [6]) was 5.8% and the Activity (Gossypium hirsutum [8]) was 50%.

For `CC(Cl)/C=C/C(=O)N(Cc1ccc(Cl)cc1)CC(C)C` (stereo not given), the inhibition (Lathyrus oleraceus [6]) was 0%, the Activity (Gossypium hirsutum [7]) was “Active” and the Activity (Gossypium hirsutum [10]) was “Active”.

For `O=[N+]([O-])c1ccc(Oc2ccc(Cl)cc2Cl)cc1` [NITROFEN], the Activity (Gossypium hirsutum [2]) was “inactive” and the Activity (Gossypium hirsutum [8]) was 10%.

With `CC(Br)/C=C/C(=O)N(Cc1ccc(Cl)cc1)CC(C)C` (stereo not given) the Activity (Gossypium hirsutum [11]) was “Active”, the inhibition (Lathyrus oleraceus [6]) was 0% and the Activity (Gossypium hirsutum [10]) was “Active”.

Work on `O=C1C2=C(CCCC2)C(=O)N1c1ccc(Cl)cc1` [CHLOROPHTHALIUM] yielded a pKa [1] of 6.43.

In the case of `CC(Cl)/C=C/C(=O)N(Cc1ccc(C#N)cc1)CC(C)C` (stereo not given), the Activity (Gossypium hirsutum [11]) is reported as “Active”, the pKa [1] is reported as 4.82 and the inhibition (Lathyrus oleraceus [6]) is reported as 4.6%. For the same compound, the Activity (Gossypium hirsutum [3]) was “Active”.
